# Results: US10420341B2, “Herbicidal phenylpyrimidines” (BASF SE, priority 2015, dated 2019)
# How the values were obtained:
# [1] = system: ECHCG; test: greenhouse post-emergence herbicidal test; type: in vivo, Echinocloa crus-galli; settings: post-emergence method, scale from 0 to 100
# Method in brief: (§1)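 Plants grown to 3 to 15 cm, then sprayed with active ingredient suspended or emulsified in water; kept at 10-25° C. or 20-35° C. by species. Damage scored after 2 to 4 weeks on a 0 to 100 scale, 100 meaning no emergence or complete aerial destruction, 0 normal growth.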
# [2] = system: POLCO; test: greenhouse post-emergence herbicidal test; type: in vivo, Polygonum convolvulus; settings: post-emergence method, application rate 500 g/ha, scale from 0 to 100
# From the text: (§2) The seeds of the test plants were sown separately for each species. For the post-emergence treatment, the test plants were first grown to a height of 3 to 15 cm, depending on the plant habit, and only then treated with the active ingredients which had been suspended or emulsified in water. For this purpose, the test plants were either sown directly and grown in the same containers, or they were first grown separately as seedlings and transplanted into the test containers a few days prior to treatment. Depending on the species, the plants were kept at 10-25° C. or 20-35° C., respectively. The test period extended over 2 to 4 weeks. During this time, the plants were tended, and their response to the individual treatments was evaluated. Evaluation was carried out using a scale from 0 to 100. 100 means no emergence of the plants, or complete destruction of at least the aerial moieties, and 0 means no damage, or normal course of growth. […] The plants used in the greenhouse experiments were of the following species: [table]
# [3] = system: APESV; test: greenhouse pre-emergence herbicidal test; type: in vivo, Apera spica-venti; settings: pre-emergence method, scale from 0 to 100
# Method in brief: (§3)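 Damage was rated on a 0 to 100 scale, where 0 is normal growth and 100 is no emergence or full destruction of aerial parts, after 2 to 4 weeks. Treatment was applied pre-emergence, right after sowing, as an aqueous suspension or emulsion via fine nozzles.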
# [4] = system: ECHCG; test: greenhouse pre-emergence herbicidal test; type: in vivo, Echinocloa crus-galli; settings: pre-emergence method, scale from 0 to 100
# Method in brief: as §3
# [5] = system: AMARE; test: greenhouse post-emergence herbicidal test; type: in vivo, Amaranthus retroflexus; settings: post-emergence method, scale from 0 to 100
# From the text: as §2
# [6] = system: ALOMY; test: greenhouse post-emergence herbicidal test; type: in vivo, Alopercurus myosuroides; settings: post-emergence method, application rate 1000 g/ha, scale from 0 to 100
# Method in brief: as §1
structure (smiles),measurement,setting,value
Cc1ccccc1-c1cnc(C(C)C)nc1C(=O)O [example 33],herbicidal activity against ECHCG,[1]; application rate 500 g/ha,good (A good herbicidal activity is given at values of at least 70)
same,herbicidal activity against POLCO,[2],good (A good herbicidal activity is given at values of at least 70)
same,herbicidal activity against APESV,[3]; application rate 500 g/ha,very good (a very good herbicidal activity is given at values of at least 85)
same,herbicidal activity against ECHCG,[4]; application rate 500 g/ha,very good (a very good herbicidal activity is given at values of at least 85)
CCOc1ncc(-c2ccccc2C)c(C(=O)O)n1 [example 67],herbicidal activity against ECHCG,[1]; application rate 500 g/ha,good (A good herbicidal activity is given at values of at least 70)
same,herbicidal activity against POLCO,[2],very good (a very good herbicidal activity is given at values of at least 85)
same,herbicidal activity against APESV,[3]; application rate 500 g/ha,very good (a very good herbicidal activity is given at values of at least 85)
same,herbicidal activity against ECHCG,[4]; application rate 500 g/ha,good (A good herbicidal activity is given at values of at least 70)
CCOc1ncc(-c2cc(C)ccc2C)c(C(=O)O)n1 [example 68],herbicidal activity against ECHCG,[1]; application rate 500 g/ha,good (A good herbicidal activity is given at values of at least 70)
same,herbicidal activity against POLCO,[2],very good (a very good herbicidal activity is given at values of at least 85)
same,herbicidal activity against APESV,[3]; application rate 500 g/ha,very good (a very good herbicidal activity is given at values of at least 85)
same,herbicidal activity against ECHCG,[4]; application rate 500 g/ha,very good (a very good herbicidal activity is given at values of at least 85)
Cc1ccccc1-c1cnc(OC(C)C)nc1C(=O)O [example 72],herbicidal activity against ECHCG,[1]; application rate 500 g/ha,very good (a very good herbicidal activity is given at values of at least 85)
same,herbicidal activity against AMARE,[5]; application rate 500 g/ha,very good (a very good herbicidal activity is given at values of at least 85)
CSc1ncc(-c2cc(C)ccc2C)c(C(=O)O)n1 [example 92],herbicidal activity against ECHCG,[1]; application rate 2000 g/ha,good (A good herbicidal activity is given at values of at least 70)
same,herbicidal activity against APESV,[3]; application rate 2000 g/ha,good (A good herbicidal activity is given at values of at least 70)
same,herbicidal activity against AMARE,[5]; application rate 2000 g/ha,very good (a very good herbicidal activity is given at values of at least 85)
same,herbicidal activity against ECHCG,[4]; application rate 2000 g/ha,very good (a very good herbicidal activity is given at values of at least 85)
CSc1ncc(-c2ccc(C)cc2C)c(C(=O)O)n1 [example 97],herbicidal activity against ECHCG,[1]; application rate 2000 g/ha,good (A good herbicidal activity is given at values of at least 70)
same,herbicidal activity against AMARE,[5]; application rate 2000 g/ha,very good (a very good herbicidal activity is given at values of at least 85)
CSc1ncc(-c2ccccc2C(C)C)c(C(=O)O)n1 [example 103],herbicidal activity against ECHCG,[1]; application rate 2000 g/ha,very good (a very good herbicidal activity is given at values of at least 85)
same,herbicidal activity against AMARE,[5]; application rate 2000 g/ha,very good (a very good herbicidal activity is given at values of at least 85)
same,herbicidal activity against ECHCG,[4]; application rate 2000 g/ha,good (A good herbicidal activity is given at values of at least 70)
COc1ccc(OC)c(-c2cnc(SC)nc2C(=O)O)c1 [example 108],herbicidal activity against AMARE,[5]; application rate 2000 g/ha,very good (a very good herbicidal activity is given at values of at least 85)
same,herbicidal activity against ECHCG,[4]; application rate 2000 g/ha,very good (a very good herbicidal activity is given at values of at least 85)
O=C(O)c1nc(C2CC2)ncc1-c1cc(Cl)ccc1Cl [example 143],herbicidal activity against ECHCG,[1]; application rate 500 g/ha,good (A good herbicidal activity is given at values of at least 70)
same,herbicidal activity against POLCO,[2],very good (a very good herbicidal activity is given at values of at least 85)
same,herbicidal activity against APESV,[3]; application rate 500 g/ha,very good (a very good herbicidal activity is given at values of at least 85)
same,herbicidal activity against ECHCG,[4]; application rate 500 g/ha,very good (a very good herbicidal activity is given at values of at least 85)
COc1ccc(Cl)c(-c2cnc(C3CC3)nc2C(=O)O)c1 [example 145],herbicidal activity against ECHCG,[1]; application rate 500 g/ha,very good (a very good herbicidal activity is given at values of at least 85)
same,herbicidal activity against POLCO,[2],very good (a very good herbicidal activity is given at values of at least 85)
same,herbicidal activity against APESV,[3]; application rate 500 g/ha,very good (a very good herbicidal activity is given at values of at least 85)
same,herbicidal activity against ECHCG,[4]; application rate 500 g/ha,very good (a very good herbicidal activity is given at values of at least 85)
Cc1cc(-c2cnc(C3CC3)nc2C(=O)O)c(C)cc1F [example 167],herbicidal activity against ECHCG,[1]; application rate 100 g/ha,very good (a very good herbicidal activity is given at values of at least 85)
same,herbicidal activity against APESV,[3]; application rate 100 g/ha,very good (a very good herbicidal activity is given at values of at least 85)
same,herbicidal activity against AMARE,[5]; application rate 100 g/ha,good (A good herbicidal activity is given at values of at least 70)
same,herbicidal activity against ECHCG,[4]; application rate 100 g/ha,very good (a very good herbicidal activity is given at values of at least 85)
CCc1ccccc1-c1cnc(C2CC2)nc1C(=O)O [example 174],herbicidal activity against ECHCG,[1]; application rate 500 g/ha,very good (a very good herbicidal activity is given at values of at least 85)
same,herbicidal activity against APESV,[3]; application rate 500 g/ha,very good (a very good herbicidal activity is given at values of at least 85)
same,herbicidal activity against AMARE,[5]; application rate 500 g/ha,very good (a very good herbicidal activity is given at values of at least 85)
same,herbicidal activity against ECHCG,[4]; application rate 500 g/ha,very good (a very good herbicidal activity is given at values of at least 85)
COC(=O)c1nc(C2CC2)ncc1-c1cccc(Cl)c1Cl [example 211],herbicidal activity against AMARE,[5]; application rate 1000 g/ha,very good (a very good herbicidal activity is given at values of at least 85)
same,herbicidal activity against ALOMY,[6],very good (a very good herbicidal activity is given at values of at least 85)
COC(=O)c1nc(C2CC2)ncc1-c1c(Br)ccc(OC)c1Cl [example 212],herbicidal activity against ECHCG,[1]; application rate 500 g/ha,very good (a very good herbicidal activity is given at values of at least 85)
same,herbicidal activity against AMARE,[5]; application rate 500 g/ha,very good (a very good herbicidal activity is given at values of at least 85)
CCc1ccccc1-c1cnc(C2CC2)nc1C(=O)OC [example 237],herbicidal activity against ECHCG,[1]; application rate 1000 g/ha,very good (a very good herbicidal activity is given at values of at least 85)
same,herbicidal activity against AMARE,[5]; application rate 1000 g/ha,very good (a very good herbicidal activity is given at values of at least 85)
same,herbicidal activity against ECHCG,[4]; application rate 1000 g/ha,very good (a very good herbicidal activity is given at values of at least 85)
COC(=O)c1nc(C2CC2)ncc1-c1ccccc1OC(F)F [example 242],herbicidal activity against ECHCG,[1]; application rate 500 g/ha,good (A good herbicidal activity is given at values of at least 70)
same,herbicidal activity against AMARE,[5]; application rate 500 g/ha,very good (a very good herbicidal activity is given at values of at least 85)
same,herbicidal activity against ECHCG,[4]; application rate 500 g/ha,very good (a very good herbicidal activity is given at values of at least 85)
COC(=O)CSC(=O)c1nc(C2CC2)ncc1-c1ccccc1Cl [example 278],herbicidal activity against POLCO,[2],very good (a very good herbicidal activity is given at values of at least 85)
same,herbicidal activity against APESV,[3]; application rate 500 g/ha,very good (a very good herbicidal activity is given at values of at least 85)
same,herbicidal activity against ECHCG,[4]; application rate 500 g/ha,very good (a very good herbicidal activity is given at values of at least 85)
O=C(SCc1ccccc1)c1nc(C2CC2)ncc1-c1ccccc1Cl [example 280],herbicidal activity against APESV,[3]; application rate 500 g/ha,very good (a very good herbicidal activity is given at values of at least 85)
same,herbicidal activity against AMARE,[5]; application rate 500 g/ha,very good (a very good herbicidal activity is given at values of at least 85)
C=Cc1ncc(-c2ccccc2Cl)c(C(=O)OC)n1 [example 292],herbicidal activity against AMARE,[5]; application rate 1000 g/ha,very good (a very good herbicidal activity is given at values of at least 85)
COC(=O)c1nc(C2CC2(F)F)ncc1-c1ccccc1Cl (centres unmarked) [example 293],herbicidal activity against AMARE,[5]; application rate 1000 g/ha,good (A good herbicidal activity is given at values of at least 70)
COC(=O)c1nc(C2CC2)ncc1-c1ccc(OC)cc1F [example 295],herbicidal activity against AMARE,[5]; application rate 500 g/ha,good (A good herbicidal activity is given at values of at least 70)
